Key:
[1] = tested on: Pulmonary Fibrosis Induced by Bleomycin; assay: Histopathologic examination of lungs, pulmonary fibrosis induced by bleomycin; format: in vivo, male SD rats; details: for Severity score: Alveolar space, Bleeding / Severity score: Alveolar space, Macrophage accumulation / Severity score: Alveolar space, Protein exudation / Severity score: Alveolar wall, Fibroblast accumulation / Severity score: Alveolar wall, Fibrosis of interstitial tissue / Severity score: Alveolar wall, Interstitial edema / Severity score: Alveolar wall, Mononuclear cell infiltration / Severity score: Circumvascular region, Perivascular edema / Severity score: Circumvascular region, Plasma cell infiltration / Severity score: Peribronchial and peribronchiolar regions, Fibrosis of interstitial tissue / Severity score: Peribronchial and peribronchiolar regions, Lymphoid follicle hyperplasia / Severity score: Type II alveolar epithelial cell, Adenomatous hyperplasia / Severity score: Type II alveolar epithelial cell, Atypia and dysplasia: day 20 after bleomycin
Method: Bleomycin is used to produce disease-model animals of interstitial pneumonia. The bleomycin and 2,3,5-trimethylhydroquinone-1-hexyl ether (HTHQ) as the hydroquinone derivative represented by the general formula (1) described above of the present invention were simultaneously administered to male SD rats of 10 week old after birth to examine the effect of the action. The test groups consisted of the control group to which sterile saline was administered; test group 1 to which bleomycin (7.5 mg/kg body weight) alone was administered; test group 2 to which bleomycin (7.5 mg/kg body weight) and HTHQ (50 mg/kg body weight/day) were administered in combination; and test group 3 to which bleomycin (7.5 mg/kg body weight) and HTHQ (200 mg/kg body weight/day) were administered in combination.
In test groups 1 to 3, bleomycin was orally administered in a single dose. In test groups 2 and 3, 2,3,5-trimethylhydroquinone-1-hexyl ether (HTHQ) was daily orally administered for 10 or 20 days starting from 24 h after the administration of bleomycin. In test group 1, olive oil, which was used as a solvent of HTHQ, was daily orally administered at 10 mL/kg/day starting from 24 h after the administration of bleomycin. The number of animals in each group was 16. 8 animals of each group were sacrificed on days 10 and 20 after the administration of bleomycin and measurement of body weight, lung autopsy, histopathologic examination of lungs and bronchoalveolar lavage examination were conducted.
The main lung lesions observed in the rats in test group 1 (the bleomycin-single administration group) on day 10 after the administration were the peribronchial and peribronchiola enlargement of alveoli, the hyperplasia of the alveolar wall, the infiltration of monocytes and lymphocytes in alveolar walls and interstitial tissue, and the exudation of alveolar macrophage into alveolar spaces. These lesions were alleviated in rats in test groups 2 and 3 (the HTHQ-administered groups) compared to the tissue in test group 1.
The result of the histopathologic examination of lungs of the control group and the test groups on day 20 after the administration of bleomycin is shown in Table 1 below. “−” indicates “not found”, “+” indicates “mild”, “++” indicates “moderate”, and “+++” indicates “severe” in severity scores. In test group 1 (the bleomycin-single administration group), the hyperplasia and fibrosis of peribronchial and adjacent alveolar walls became remarkable compared to the tissue on day 10 after the administration and the morphology of alveolus almost disappeared due to the infiltration of lymphocytes and neutrophils. The alveolar macrophages infiltrated within alveolar spaces were buried in surrounding tissues.

[2] = tested on: allergic asthma model of mice caused by ovalbumin sensitization; assay: BAL inflammatory cell numbers, allergic asthma model caused by ovalbumin sensitization; format: in vivo, BALB/c female mice; details: HTHQ 20 and 40 mg/kg/day oral, days 18 to 23; day 25; compared to OVA group
Method: The efficacy of the hydroquinone derivative represented by the general formula (1) described above of the present invention on asthma was studied using an allergic asthma model of mice caused by ovalbumin sensitization.
6 week old BALB/c female mice were purchased and the mice were divided into 5 groups with 5 animals per group shown in Table 3 below after habituation breeding of about 2 weeks.
The test was conducted on the schedule of sensitization, causing diseases and administration of test materials shown in FIG. 12. “IP” in FIG. 12 refers to ovalbumin sensitization treatment by the intraperitoneal administration of ovalbumin/aluminum hydroxide, and “IH” refers to inhalation exposure treatment of ovalbumin, and “PO” refers to the administration of the test materials. […]
All mice were euthanized by intraperitoneal injection of pentobarbital (Hanrimu pharmaceutical, South Korea) at 50 mg/kg and the bronchi were excised on day 25 of the test. […] After preparing slide samples from 100 μL of BAL cell fluid using Cytospin (4° C., 1000 rpm×5 min), the cell numbers of inflammatory cells (eosinophils, macrophages, lymphocytes and neutrophils) present in the BAL fluid were counted using a Diff-Quik stain kit.

[3] = Test group 2: bleomycin 7.5 mg/kg + HTHQ 50 mg/kg/day oral
[4] = Test group 3: bleomycin 7.5 mg/kg + HTHQ 200 mg/kg/day oral

## CCCCCCOc1cc(C)c(O)c(C)c1C [HTHQ, 2,3,5-trimethylhydroquinone-1-hexyl ether]
[1]; [3]
  Severity score: Alveolar space, Bleeding: +
  Severity score: Alveolar space, Macrophage accumulation: +
  Severity score: Alveolar space, Protein exudation: +
  Severity score: Alveolar wall, Fibroblast accumulation: ++
  Severity score: Alveolar wall, Fibrosis of interstitial tissue: ++
  Severity score: Alveolar wall, Interstitial edema: +
  Severity score: Alveolar wall, Mononuclear cell infiltration: ++
  Severity score: Circumvascular region, Perivascular edema: +
  Severity score: Circumvascular region, Plasma cell infiltration: +
  Severity score: Peribronchial and peribronchiolar regions, Fibrosis of interstitial tissue: +
  Severity score: Peribronchial and peribronchiolar regions, Lymphoid follicle hyperplasia: +
  Severity score: Type II alveolar epithelial cell, Adenomatous hyperplasia: ++
  Severity score: Type II alveolar epithelial cell, Atypia and dysplasia: +
[1]; [4]
  Severity score: Alveolar space, Bleeding: −
  Severity score: Alveolar space, Macrophage accumulation: +
  Severity score: Alveolar space, Protein exudation: ++
  Severity score: Alveolar wall, Fibroblast accumulation: +
  Severity score: Alveolar wall, Fibrosis of interstitial tissue: +
  Severity score: Alveolar wall, Interstitial edema: +
  Severity score: Alveolar wall, Mononuclear cell infiltration: ++
  Severity score: Circumvascular region, Perivascular edema: −
  Severity score: Circumvascular region, Plasma cell infiltration: −
  Severity score: Peribronchial and peribronchiolar regions, Fibrosis of interstitial tissue: +
  Severity score: Peribronchial and peribronchiolar regions, Lymphoid follicle hyperplasia: +
  Severity score: Type II alveolar epithelial cell, Adenomatous hyperplasia: +
  Severity score: Type II alveolar epithelial cell, Atypia and dysplasia: +
[1]; test groups 2 and 3: bleomycin 7.5 mg/kg + HTHQ 50 or 200 mg/kg/day oral, day 10, compared to test group 1
  histopathologic lung lesions: alleviated
[1]; test groups 2 and 3: bleomycin 7.5 mg/kg + HTHQ 50 or 200 mg/kg/day oral, day 20, compared to test group 1
  degree of histopathologic lung lesions: milder than test group 1
[2]
  inflammatory cell numbers in BAL fluid (eosinophils, macrophages, total): significantly reduced in an HTHQ dose-dependent manner

Reference: patent US20180049996A1, “THERAPEUTIC AGENT FOR CHRONIC RESPIRATORY DISEASE AND COMPOSITION FOR INHIBITING CARDIAC FIBROSIS” (NIPPON HYPOX LABORATORIES INCORPORATED, priority 2015, published 2018)
